This passage reports TGI results from PubChem BioAssay (NCI).

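These data come from cells grown in 96-well plates and exposed to compound for 48 hours at five concentrations. Definition used: TGI = concentration required for complete inhibition of growth.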

Some test systems named below: TK-10 renal; SNB-19 CNS; NCI-H23 lung; K-562 leukemia; KM20L2 colon; HL-60(TB) leukemia; LOX IMVI melanoma; DMS 273 small cell lung; NCI-H460 lung; HOP-92 NSCLC; RXF 393 renal; MOLT-4 leukemia; A498 renal; RPMI-8226 leukemia; SNB-75 CNS; BT-549 breast; OVCAR-8 ovarian; T-47D breast; SK-MEL-28 melanoma; MCF7 breast.
Holding throughout (assay): inhibition of tumour cell growth, NCI panel, 48 h

For `O=c1cc2cc(O)[nH]c(=O)c2c(O)[nH]1`, the TGI in the experiment on TK-10 renal, in the experiment with SNB-19 CNS, with NCI-H23 lung, with K-562 leukemia, with KM20L2 colon and in the experiment on HL-60(TB) leukemia was greater than 100 µM throughout. Further, the TGI in the experiment on LOX IMVI melanoma, with DMS 273 small cell lung, in the experiment with NCI-H460 lung, in the experiment with HOP-92 NSCLC, in the experiment with RXF 393 renal and in the experiment on MOLT-4 leukemia was greater than 100 µM throughout. Moreover, the TGI in the experiment with A498 renal, in the experiment with RPMI-8226 leukemia and in the experiment on SNB-75 CNS was greater than 100 µM in each case.

`CC(C)(C)c1cc(C2NC(=O)NC2=O)cc(C(C)(C)C)c1O` (stereo unspecified): the TGI in the experiment with BT-549 breast is greater than 100 µM; in the experiment on TK-10 renal, 95.2 µM; in the experiment on OVCAR-8 ovarian, greater than 100 µM; in the experiment with SNB-19 CNS, greater than 100 µM; in the experiment with T-47D breast, greater than 100 µM; in the experiment on NCI-H23 lung it was greater than 100 µM. Further, the TGI with K-562 leukemia was greater than 100 µM; with LOX IMVI melanoma it was greater than 100 µM; in the experiment with SK-MEL-28 melanoma, greater than 100 µM; with HOP-92 NSCLC, greater than 100 µM; in the experiment on RXF 393 renal, 95.7 µM; in the experiment with MCF7 breast, 83.3 µM. Besides, the TGI in the experiment with MOLT-4 leukemia was greater than 100 µM; in the experiment with A498 renal, greater than 100 µM; in the experiment on RPMI-8226 leukemia, greater than 100 µM; in the experiment on SNB-75 CNS, 84.4 µM.

As to `COc1cc(-c2coc3c(OC)c(OC4OC(COC5OC(C)C(O)C(O)C5O)C(O)C(O)C4O)c(OC)c(O)c3c2=O)cc(C)c1O` (stereo unspecified), the TGI in the experiment with BT-549 breast was 45.4 µM; with TK-10 renal it was greater than 100 µM; in the experiment with OVCAR-8 ovarian, greater than 100 µM; in the experiment on SNB-19 CNS, 30.3 µM; in the experiment on T-47D breast it was 61.4 µM; in the experiment on NCI-H23 lung it was 32.4 µM. Moreover, the TGI in the experiment with K-562 leukemia is 34.6 µM; in the experiment on LOX IMVI melanoma it was 45.3 µM; with SK-MEL-28 melanoma, 34.4 µM; with NCI-H460 lung, 82.6 µM; in the experiment on HOP-92 NSCLC, 65 µM; with RXF 393 renal, 32.5 µM. The TGI in the experiment on MCF7 breast was 47.4 µM; with MOLT-4 leukemia, 19.4 µM; in the experiment on SNB-75 CNS, 69.6 µM.

Turning to `Cc1[nH]c(=O)[nH]c(=O)c1C(=O)N(CCO)Cc1ccccc1`, the TGI with BT-549 breast, with TK-10 renal, in the experiment on SNB-19 CNS, in the experiment on T-47D breast, in the experiment on NCI-H23 lung and with K-562 leukemia was greater than 100 µM throughout. For the same compound, the TGI is greater than 100 µM in the experiment with HL-60(TB) leukemia; greater than 100 µM in the experiment with LOX IMVI melanoma; greater than 100 µM in the experiment on SK-MEL-28 melanoma; greater than 100 µM in the experiment with NCI-H460 lung; greater than 100 µM in the experiment with HOP-92 NSCLC; 83.6 µM in the experiment with RXF 393 renal. For the same compound, the TGI with MCF7 breast, in the experiment on MOLT-4 leukemia, with A498 renal and in the experiment with RPMI-8226 leukemia was greater than 100 µM throughout.

As to `CCCN1C(=O)/C(=C(/O)C(=O)OCC)C(c2ccc(OC)c(OC)c2)C1=O` (stereo unspecified), the TGI in the experiment on OVCAR-8 ovarian, in the experiment on SNB-19 CNS, with NCI-H23 lung, in the experiment on K-562 leukemia, in the experiment on KM20L2 colon and in the experiment with HL-60(TB) leukemia was greater than 100 µM each time. Besides, the TGI was greater than 100 µM with LOX IMVI melanoma; greater than 100 µM with DMS 273 small cell lung; greater than 100 µM in the experiment on SK-MEL-28 melanoma; greater than 31.6 µM with NCI-H460 lung; greater than 100 µM with HOP-92 NSCLC; greater than 100 µM in the experiment on RXF 393 renal. In addition, the TGI with MCF7 breast, in the experiment on MOLT-4 leukemia, in the experiment on A498 renal, in the experiment with RPMI-8226 leukemia and with SNB-75 CNS was greater than 100 µM throughout.

As to `CC(=O)OC1C(O)C(C)OC(OC(=O)C2CCC3C(C2)OC2(CC(OC(=O)/C=C/c4ccccc4)C(C)CO2)C32CO2)C1OC1OC(C)C(O)C(O)C1O` (stereo unspecified), the TGI was 0.823 µM with OVCAR-8 ovarian; 0.0909 µM in the experiment on SNB-19 CNS; 0.22 µM in the experiment on NCI-H23 lung; 2.29 µM in the experiment on K-562 leukemia; 1.42 µM with KM20L2 colon; 0.579 µM in the experiment on HL-60(TB) leukemia. In addition, the TGI worked out at 0.362 µM with LOX IMVI melanoma; 0.151 µM in the experiment on DMS 273 small cell lung; 0.0685 µM with SK-MEL-28 melanoma; 0.236 µM in the experiment with NCI-H460 lung; 0.0396 µM in the experiment on HOP-92 NSCLC; 0.208 µM in the experiment with RXF 393 renal. Also, the TGI worked out at 0.0917 µM with MCF7 breast; 5.05 µM in the experiment with MOLT-4 leukemia; 0.315 µM in the experiment on A498 renal; 1.15 µM in the experiment on RPMI-8226 leukemia; 0.135 µM in the experiment with SNB-75 CNS.
